Data on 18 compounds can be found in patent US12459922B2 (Gilead Sciences, Inc., priority 2022, dated 2025).

This assay concerns endogenous cellular STAT1 (phosphorylated at Tyr701) in NCI-H1373 cells. The experiment in a line: Phospho-STAT1 (Tyr701) LANCE Ultra TR-FRET Detection Assay. The format is cell-based. Conditions: Homo sapiens, NCI-H1373, 48 h, phospho-STAT1 (Tyr701) induction, read-out: NH1373 pSTAT1 EC50. The method, then: Phospho-STAT1 (Tyr701 LANCE Ultra TR-FRET Detection Assay
d. LANCE Ultra phospho-STAT1 (Tyr701) kits are designed for the detection of phosphorylated STAT1 in cell lysates using a simple, homogeneous LANCE Ultra sandwich assay (Cat. #TRF4028M). This assay is intended for assessing compound induction of endogenous levels of cellular STAT1 (phosphorylated at Tyr701) in NCI-H1373 cells. The NCI-H1373 cells are cultured in RPMI 1640 media containing 10% heat inactivated FBS, GlutaMAX, 1% Penicillin-Streptomycin. An Echo acoustic liquid handler is used to transfer 60 nanoliters of compound dilutions using the Echo Qualified, 384-well polypropylene microplate clear flat bottom source plates into a Greiner (#781080) cell culture microplate. NCI-H1373 cells are seeded into these compound-spotted culture plates at 30,000 cells/well in a 60 uL volume in growth media. The plates are incubated in a 5% CO2 humidified incubator at 37° C. for 48 hours. […] After spinning the plate down at 300 rpm for 1 min, the plate is read on an EnVision plate reader set up for Eu3+ Cryptate and fluorescence emission is measured at two different wavelengths (665 nm and 620 nm). The HTRF ratio is then calculated […] for each well to determine the amount of pSTAT1 in the cell lysate, and the data is then normalized to 10 uM GS-1154611 positive and DMSO negative controls.
A general note: TR-FRET usually uses a lanthanide donor and a delayed reading to cut background.
Consider `O=c1[nH]ncc(N[C@H]2CC[C@@H](Cn3ccc4cc(-c5ncc(C(F)(F)F)cn5)c(F)cc4c3=O)C2)c1C(F)(F)F` [Example 443, 7-fluoro-2-(((1R,3S)-3-((6-oxo-5-(trifluoromethyl)-1,6-dihydropyridazin-4-yl)amino)cyclopentyl)methyl)-6-(5-(trifluoromethyl)pyrimidin-2-yl)isoquinolin-1(2H)-one], for which the half-maximal effective concentration (EC50) (in general, the concentration needed to bring the measured effect to its halfway point) was 273 nM.
`Nc1nc(-c2cc3ccn(CCC[C@H](COC(F)F)Nc4cn[nH]c(=O)c4C(F)(F)F)c(=O)c3cc2F)ccc1Cl` [Example 410, (R)-6-(6-amino-5-chloropyridin-2-yl)-2-(5-(difluoromethoxy)-4-((6-oxo-5-(trifluoromethyl)-1,6-dihydropyridazin-4-yl)amino)pentyl)-7-fluoroisoquinolin-1(2H)-one]: the EC50 stood at 0.99 nM.
For the compound `C[C@@H](CCCn1ccc2cc(-c3ncc(C(F)(F)F)c(N)n3)c(F)c(F)c2c1=O)Nc1cn[nH]c(=O)c1C(F)(F)F` [Example 81, (S)-6-(4-amino-5-(trifluoromethyl)pyrimidin-2-yl)-7,8-difluoro-2-(4-((6-oxo-5-(trifluoromethyl)-1,6-dihydropyridazin-4-yl)amino)pentyl)isoquinolin-1(2H)-one], the EC50 worked out at 4.26 nM.
Turning to `O=c1[nH]ncc(N[C@H](CCCn2cnc3nc(-c4ccc(C(F)(F)F)cn4)ccc3c2=O)COC(F)F)c1C(F)(F)F` [Example 404, (R)-3-(5-(difluoromethoxy)-4-((6-oxo-5-(trifluoromethyl)-1,6-dihydropyridazin-4-yl)amino)pentyl)-7-(5-(trifluoromethyl)pyridin-2-yl)pyrido[2,3-d]pyrimidin-4(3H)-one], the EC50 amounted to 1.57 nM.
In the case of `Cc1nnc([C@@H](CCCn2ccc3cc(-c4ncc(C(F)(F)F)cn4)c(F)c(F)c3c2=O)Nc2cn[nH]c(=O)c2C(F)(F)F)o1` [Example 474, 7,8-difluoro-2-[(4R)-4-(5-methyl-1,3,4-oxadiazol-2-yl)-4-[[6-oxo-5-(trifluoromethyl)-1H-pyridazin-4-yl]amino]butyl]-6-[5-(trifluoromethyl)pyrimidin-2-yl]isoquinolin-1-one], the EC50 was 14.8 nM.
The value for `Nc1nc(-c2cc3ccn(C[C@H]4CC[C@@H](Nc5cn[nH]c(=O)c5C(F)(F)F)C4)c(=O)c3cc2F)ncc1C(F)(F)F` [Example 447, 6-(4-amino-5-(trifluoromethyl)pyrimidin-2-yl)-7-fluoro-2-(((1S,3R)-3-((6-oxo-5-(trifluoromethyl)-1,6-dihydropyridazin-4-yl)amino)cvclopentyl)methyl)isoquinolin-1(2H)-one] was 25.6 nM.
For the compound `C[C@@H](CCCn1ccc2cc(-c3ncc(OCCO)cn3)c(F)cc2c1=O)Nc1cn[nH]c(=O)c1C(F)(F)F` [Example 129, (S)-7-fluoro-6-(5-(2-hydroxyethoxy)pyrimidin-2-yl)-2-(4-((6-oxo-5-(trifluoromethyl)-1,6-dihydropyridazin-4-yl)amino)pentyl)isoquinolin-1(2H)-one], the EC50 was determined as 77.8 nM.
As for `O=c1[nH]ncc(N[C@H](CCCn2cnc3cc(-c4ccc(C(F)F)cn4)c(F)cc3c2=O)COC(F)F)c1C(F)(F)F` [Example 402, (R)-3-(5-(difluoromethoxy)-4-((6-oxo-5-(trifluoromethyl)-1,6-dihydropyridazin-4-yl)amino)pentyl)-7-(5-(difluoromethyl)pyridin-2-yl)-6-fluoroquinazolin-4(3H)-one], the EC50 turned out to be 3.13 nM.
The value for `C[C@@H](CCCn1ccc2cc(-c3ncc([N+](=O)[O-])c(N)n3)c(F)cc2c1=O)Nc1cn[nH]c(=O)c1C(F)(F)F` [Example 111, 6-(4-amino-5-nitro-pyrimidin-2-yl)-7-fluoro-2-[(4S)-4-[[6-oxo-5-(trifluoromethyl)-1H-pyridazin-4-yl]amino]pentyl]isoquinolin-1-one] was 6.67 nM; that for `[2H][C@](C)(CCCn1ccc2cc(-c3ncc(C(F)(F)F)cn3)c(F)c(F)c2c1=O)Nc1cn[nH]c(=O)c1C(F)(F)F` (single isomer, unassigned) [Example 87] was 10000 nM.
In the case of `O=c1[nH]ncc(N[C@H]2CCC[C@@H](Cn3ccc4cc(-c5ncc(Cl)cn5)c(F)c(F)c4c3=O)C2)c1C(F)(F)F` [Example 246, 6-(5-chloropyrimidin-2-yl)-7,8-difluoro-2-(((1R,3S)-3-((6-oxo-5-(trifluoromethyl)-1,6-dihydropyridazin-4-yl)amino)cyclohexyl)methyl)isoquinolin-1(2H)-one], the concentration for a half-maximal effect (EC50) was 3.78 nM.
The value for `O=c1[nH]ncc(N[C@H](CCCn2cnc3cc(-c4nc5ccccn5n4)c(F)cc3c2=O)COC(F)F)c1C(F)(F)F` [Example 490, (R)-7-([1,2,4]triazolo[1,5-a]pyridin-2-yl)-3-(5-(difluoromethoxy)-4-((6-oxo-5-(trifluoromethyl)-1,6-dihydropyridazin-4-yl)amino)pentyl)-6-fluoroquinazolin-4(3H)-one] was 1 nM; that for `C[C@H](Nc1cn[nH]c(=O)c1C(F)(F)F)[C@@H]1C[C@H]1Cn1ccc2cc(-c3ncc(C(F)(F)F)cn3)c(F)cc2c1=O` [Example 68, 7-fluoro-2-[[(1R,2R)-2-[(1S)-1-[[6-oxo-5-(trifluoromethyl)-1H-pyridazin-4-yl]amino]ethyl]cyclopropyl]methyl]-6-[5-(trifluoromethyl)pyrimidin-2-yl]isoquinolin-1-one] was 10000 nM; that for `C[C@@H](CCCn1ccc2cc(-c3cnc(C(F)(F)F)c(N)n3)c(F)c(F)c2c1=O)Nc1cn[nH]c(=O)c1C(F)(F)F` [Example 349, (S)-6-(6-amino-5-(trifluoromethyl)pyrazin-2-yl)-7,8-difluoro-2-(4-((6-oxo-5-(trifluoromethyl)-1,6-dihydropyridazin-4-yl)amino)pentyl)isoquinolin-1(2H)-one] was 11.8 nM.
For `Cc1nc(-c2cc3ccn(CCC[C@H](C)Nc4cn[nH]c(=O)c4C(F)(F)F)c(=O)c3cc2F)nc(N)c1Cl` [Example 319, (S)-6-(4-amino-5-chloro-6-methylpyrimidin-2-yl)-7-fluoro-2-(4-((6-oxo-5-(trifluoromethyl)-1,6-dihydropyridazin-4-yl)amino)pentyl)isoquinolin-1(2H)-one] the value was 2.92 nM; for `C[C@@H](CCCn1ccc2cc(-c3ncc(N4CC(O)(C(F)(F)F)C4)cn3)c(F)cc2c1=O)Nc1cn[nH]c(=O)c1C(F)(F)F` [Example 69, 7-fluoro-6-[5-[3-hydroxy-3-(trifluoromethyl)azetidin-1-yl]pyrimidin-2-yl]-2-[(4S)-4-[[6-oxo-5-(trifluoromethyl)-1H-pyridazin-4-yl]amino]pentyl]isoquinolin-1-one], 148 nM; for `Nc1nc(-c2cc3ccn(CCC[C@H](COC(F)F)Nc4cn[nH]c(=O)c4C(F)(F)F)c(=O)c3cc2F)n[nH]1` [Example 421, (R)-6-(5-amino-1H-1,2,4-triazol-3-yl)-2-(5-(difluoromethoxy)-4-((6-oxo-5-(trifluoromethyl)-1,6-dihydropyridazin-4-yl)amino)pentyl)-7-fluoroisoquinolin-1(2H)-one], 110 nM.
For the compound `Nc1nc(-c2cc3ccn(CCC[C@H](COC(F)F)Nc4cn[nH]c(=O)c4C(F)(F)F)c(=O)c3cc2F)cnc1C(F)(F)F` [Example 416, (R)-6-(6-amino-5-(trifluoromethyl)pyrazin-2-yl)-2-(5-(difluoromethoxy)-4-((6-oxo-5-(trifluoromethyl)-1,6-dihydropyridazin-4-yl)amino)pentyl)-7-fluoroisoquinolin-1(2H)-one], the EC50 came out at 6.78 nM.
